Results published in patent publication US9272026B2, “HLA-A*1101-restricted WT1 peptide and pharmaceutical composition comprising the same” (International Institute of Cancer Immunology, Inc., priority 2006, dated 2016).
Read-outs that look alike come from different tables or passages of the source. No end group written: not given here.

Assays:
[1] = system: PBMCs from HLA-A*1101-positive healthy donors; assay: Induction of CTL by WT1 peptide dimer and related peptides using PBMCs from HLA-A*1101-positive healthy donors 1-3; format: cell-based, human; details: FIGS. 10-14
Description: After the culture, the supernatants were collected by centrifugation.
Abilities of the resulting WT1378 peptide dimer, WT1378 peptide, modified WT1378 peptide (G→I) (SEQ ID No: 11) and modified WT1378 peptide (G→V) (SEQ ID No: 12) as well as WT1379 peptide (SEQ ID No: 13, as disclosed in WO 2002/28414) to induce a CTL were examined using PBMCs from HLA-A*1101-positive healthy donors 1-3 according to the method as described above.

[2] = system: B-LCLs expressing WT1
Description: (§1) The PBMCs were then seeded to a 24-well cell culture plate at the density of about 1×10^7 in RPMI 1640 medium containing 10% FCS, and a culture supernatant of B95-8 cells (cells producing EB virus) were added. They were cultured at 37° C. with 5% CO2 for about 1 month. B-LCL cells transformed with EB virus, which are B-cell tumor cells, were obtained. […] B-LCL cells were pulsed by incubating them with 20 μg/ml of WT1251, WT1279, WT1312, WT1313, WT1338, WT1378, WT1386, WT1415 or WT1436 for 2 hours, and irradiated with 80 Gy of radiation. The resulting B-LCL cells (hereinafter referred to as B-LCL cells pulsed with a WT1 peptide) were used as antigen-presenting cells for the following experiments.
(§2) 3×10^6 of autologous PBMCs were cultured in a 24-well cell culture plate in complete medium (45% RPMI, 45% AMI-V medium and 10% human AB serum) containing 20 μg/ml of WT1251, WT1279, WT1312, WT1313, WT1338, WT1378, WT1386, WT1415 or WT1436 at 37° C. with 5% CO2 for 1 week to obtain responding cells. 2×10^6 of the resulting responding cells were cocultured with 1×10^6 of the B-LCL cells pulsed with the same WT1 peptide in complete medium for 1 week (first stimulation). The PBMCs were coculutured with the B-LCL cells pulsed with the WT1 peptide three more times (second to fourth stimulations) under the conditions under which 20 IU/ml (final concentration) of IL2 was added as follows: second stimulation: two times every other day from 3 days after the initiation of stimulation; third and fourth stimulations: three times at intervals of one day from the day after the initiation of stimulation. The resulting cells were concentrated using Negative Selection Columns Gravity Feed Kit (StemSp) so that the ratio of CD8-positive T cells became about 80%, and cocultured with the B-LCL cells pulsed with the WT1 peptide (fifth stimulation). CD8-positive T cells (CTLs) obtained 5 days after the final stimulation were used for measurement of the cytotoxic activity.
(§3) The cytotoxic activity of CTLs was measured using ^51Cr release assay. CTL cells (hereinafter referred to as effector cells) were mixed at the ratio (E/T ration) of 1:1 to 30:1 in 200 μl of medium with target cells into which ^51Cr had been incorporated, and cultured in a 96-well cell culture plate at 37° C. with 5% CO2 for 4 hours. B-LCL cells pulsed with the same WT1 peptide as that used for induction of CTLs (BLCL-Ps), and B-LCL cells without pulsing with a WT1 peptide (BLCL-NPs) were used as target cells. After the culture, the supernatants were collected by centrifugation. The amounts of ^51Cr released into the supernatants were measured using a liquid scintillation counter. The cytotoxic activity (%) was determined using the following formula: (^51Cr release in supernatant of sample−Spontaneous ^51Cr release)/(Maximum ^51Cr release−Spontaneous ^51Cr release)×100 wherein Spontaneous ^51Cr release is ^51Cr release observed when the target cells into which ^51Cr had been incorporated were cultured alone under the same condition, and Maximum ^51Cr release is ^51Cr release observed when the target cells into which ^51Cr had been incorporated were completely lysed using 1% Triton X-100.
(§4) The cytotoxic activity of CTLs induced with WT1251, WT1279, WT1313, WT1338 or WT1386 against B-LCLs expressing WT1 was determined using the method described above.

[3] = system: human peripheral blood mononuclear cells having HLA-A*0201; details: human PBMCs having HLA-A*0201; Non-patent Document 11; cited from earlier work
[4] = system: B-LCL cells pulsed with the same WT1 peptide (BLCL-Ps); assay: 51Cr release assay: cytotoxic activity of CTLs induced with WT1 peptide against peptide-pulsed B-LCL cells; details: CTLs induced with 20 μg/ml peptide; E/T ratio 1:1 to 30:1; 4 hours; FIGS. 1-9
Description: The PBMCs were then seeded to a 24-well cell culture plate at the density of about 1×10^7 in RPMI 1640 medium containing 10% FCS, and a culture supernatant of B95-8 cells (cells producing EB virus) were added. They were cultured at 37° C. with 5% CO2 for about 1 month. B-LCL cells transformed with EB virus, which are B-cell tumor cells, were obtained. […] B-LCL cells were pulsed by incubating them with 20 μg/ml of WT1251, WT1279, WT1312, WT1313, WT1338, WT1378, WT1386, WT1415 or WT1436 for 2 hours, and irradiated with 80 Gy of radiation. The resulting B-LCL cells (hereinafter referred to as B-LCL cells pulsed with a WT1 peptide) were used as antigen-presenting cells for the following experiments. […]
The cytotoxic activity of CTLs was measured using ^51Cr release assay. […] The amounts of ^51Cr released into the supernatants were measured using a liquid scintillation counter. The cytotoxic activity (%) was determined using the following formula: (^51Cr release in supernatant of sample−Spontaneous ^51Cr release)/(Maximum ^51Cr release−Spontaneous ^51Cr release)×100 wherein Spontaneous ^51Cr release is ^51Cr release observed when the target cells into which ^51Cr had been incorporated were cultured alone under the same condition, and Maximum ^51Cr release is ^51Cr release observed when the target cells into which ^51Cr had been incorporated were completely lysed using 1% Triton X-100.

[5] = system: B-LCLs expressing WT1; assay: 51Cr release assay: cytotoxic activity of CTL against cell expressing WT1 endogenously; details: B-LCL into which a human WT1 gene is introduced; FIGS. 1, 2, 4, 5 and 7
Description: as §1, §2, §3, §4

[6] = system: human cells; details: HLA-A*2402; Non-patent Document 12; cited from earlier work

Substance: WT1379 peptide: known peptide disclosed in WO 2002/28414; differs from WT1378 peptide by one amino acid in the WT1 protein sequence (GVKPFQCKT; listed as Homo sapiens)
- ability to induce a CTL [1]: much lower than that of WT1378 peptide

Substance: KTCQRKFSR [WT1386]
- cytotoxic activity of induced CTLs against cells expressing WT1 gene endogenously [2]: have a cytotoxic activity against cells expressing WT1 gene endogenously

Substance: SHLQMNSRK [WT1338]
- cytotoxic activity of induced CTLs against cells expressing WT1 gene endogenously [2]: have a cytotoxic activity against cells expressing WT1 gene endogenously

Substance: SLGEQQYSV (listed as Homo sapiens) [WH187 peptide]
- induction of WT1-specific CTLs [3]: WT1-specific CTLs are induced

Substance: AAGSSSSVK [WT1251]
- cytotoxic activity of induced CTLs against BLCL-Ps as compared with BLCL-NPs [4]: damage specifically BLCL-Ps
- cytotoxic activity of induced CTLs against cells expressing WT1 gene endogenously [5]: have a cytotoxic activity against cells expressing WT1 gene endogenously

Substance: PILCGAQYR [WT1279]
- cytotoxic activity of induced CTLs against cells expressing WT1 gene endogenously [2]: have a cytotoxic activity against cells expressing WT1 gene endogenously

Substance: SASETSEKR [WT1313]
- cytotoxic activity of induced CTLs against cells expressing WT1 gene endogenously [2]: have a cytotoxic activity against cells expressing WT1 gene endogenously

Substance: CMTWNQMNL (listed as Homo sapiens) [WT1235, WT1 peptide that matches HLA-A*2402]
- induction of WT1-specific CTLs [6]: WT1-specific CTLs (TAK-1) are induced
